Measured values taken from patent US6486162B2, “2-{3-[4-(2-t-butyl-6-trifluoromethyl-4-pyrimidinyl)-1- piperazinyl] propylthio}-4-pyrimidinol fumarate” (Abbott Laboratories, priority 1997, dated 2002).

Key:
Assay type in all cases: physicochemical
[1] = stability against oxidative processes; conditions: compared to the free base
From the text: (§1) Furthermore, the fumarate is more soluble in polar solvents such as C1-C6-alkanols than the free base. Because of the altered solubility characteristics, it can also be purified more simply while avoiding physiologically unacceptable solvents.

[2] = solubility tests of the substances
From the text: It has a selectivity, Ki D2/Ki D3of 120 (cf. WO 96/02519). The compound is therefore useful for treating disorders which respond to dopamine D3ligands, eg. for treating disorders of the central nervous system, in particular schizophrenia, depressions, neuroses and psychoses. It is additionally useful for treating sleep disturbances and nausea and as antihistamine.
as §1

[3] = evaluation of various acid addition salts
From the text: Evaluation of various acid addition salts of 2-{3-[4-(2-t-butyl-6-trifluoromethyl-4-pyrimidyl)-1-piperazinyl)propylthio}-4-5 pyrimidinol

Question: For `CC(C)(C)c1nc(N2CCN(CCCSc3nccc(O)n3)CC2)cc(C(F)(F)F)n1.O=C(O)/C=C/C(=O)O` [Fumarate, fumaric acid salt of 2-{3-[4-(2-t-butyl-6-trifluoromethyl-4-pyrimidinyl)-1-piperazinyl]propylthio}-4-pyrimidinol], which “stability against oxidative processes” value [1] is on record?
Answer: higher stability

Question: And the solubility in water ([2]; compared to that of the free base)?
Answer: substantially higher solubility

Question: And the “solubility in polar solvents such as C1-C6-alkanols” value ([2]; compared to the free base)?
Answer: more soluble

Question: What about the “Observation: hygroscopicity” value [3] of the same compound?
Answer: non-hygroscopic salt with definite

Question: Which “Observation: stability of the compound in the acidic medium” value ([3]; aqueous solution of the salt is highly acidic) does the source give for Hydrochloride here?
Answer: acidic; the compound is instable in

Question: With Methane sulfonate as the compound, how does the “Observation: crystals are deliquescent and dissolve within” value [3] read?
Answer: deliquescent and dissolve within 3 h
